Experimental data from PubChem BioAssay (NCI).
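48-hour exposure; five concentrations; linearly interpolated endpoints. GI50: concentration for 50% inhibition of growth. TGI marks complete inhibition of growth.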

Legend:
Assay in all cases: DTP human tumour cell line panel, 48 h
[1] = test system: 786-0 renal
[2] = test system: A498 renal
[3] = test system: A549 NSCLC
[4] = test system: ACHN renal
[5] = test system: BT-549 breast
[6] = test system: CAKI-1 renal
[7] = test system: CCRF-CEM leukemia
[8] = test system: COLO 205 colon
[9] = test system: DU-145 prostate
[10] = test system: EKVX NSCLC
[11] = test system: HCC-2998 colon
[12] = test system: HCT-116 colon
[13] = test system: HCT-15 colon
[14] = test system: HL-60(TB) leukemia
[15] = test system: HOP-62 NSCLC
[16] = test system: HOP-92 NSCLC
[17] = test system: HS 578T breast
[18] = test system: HT29 colon
[19] = test system: IGROV1 ovarian
[20] = test system: K-562 leukemia
[21] = test system: KM12 colon
[22] = test system: LOX IMVI melanoma
[23] = test system: M14 melanoma
[24] = test system: MCF7 breast
[25] = test system: MDA-MB-231 breast
[26] = test system: MDA-MB-435
[27] = test system: MOLT-4 leukemia
[28] = test system: NCI-H226 lung
[29] = test system: NCI-H23 lung
[30] = test system: NCI-H460 lung
[31] = test system: NCI-H522 lung
[32] = test system: NCI/ADR-RES ovarian
[33] = test system: OVCAR-3 ovarian
[34] = test system: OVCAR-4 ovarian
[35] = test system: OVCAR-5 ovarian
[36] = test system: OVCAR-8 ovarian
[37] = test system: PC-3 prostate
[38] = test system: RPMI-8226 leukemia
[39] = test system: SF-268 CNS
[40] = test system: SF-295 CNS
[41] = test system: SF-539 CNS
[42] = test system: SK-MEL-2 melanoma
[43] = test system: SK-MEL-28 melanoma
[44] = test system: SK-MEL-5 melanoma
[45] = test system: SN12C renal
[46] = test system: SNB-19 CNS
[47] = test system: SNB-75 CNS
[48] = test system: SR leukemia
[49] = test system: SW-620 colon
[50] = test system: T-47D breast
[51] = test system: TK-10 renal
[52] = test system: U251 CNS
[53] = test system: UACC-257 melanoma
[54] = test system: UACC-62 melanoma
[55] = test system: UO-31 renal
[56] = test system: MALME-3M melanoma
[57] = test system: RXF 393 renal
[58] = test system: SK-OV-3 ovarian

For `CC1=C(C)C(=O)c2c(c(C(=O)c3ccccc3)c3nc4ccccc4n3c2C)C1=O`, the GI50 [1] was 26.8 µM, the TGI [1] was 95.2 µM and the GI50 [2] was > 100 µM. For the same molecule, the TGI [2] was > 100 µM, the GI50 [3] was > 100 µM and the TGI [3] was > 100 µM. For the same molecule, the GI50 [4] was 37.2 µM, the TGI [4] was > 100 µM and the GI50 [5] was 54.7 µM. For the same molecule, the TGI [5] was > 100 µM, the GI50 [6] was > 100 µM and the TGI [6] was > 100 µM. For the same molecule, the GI50 [7] was > 100 µM, the TGI [7] was > 100 µM and the GI50 [8] was > 100 µM. The TGI [8] was > 100 µM, the GI50 [9] was 63.5 µM and the TGI [9] was > 100 µM. The GI50 [10] was 68.2 µM, the TGI [10] was > 100 µM and the GI50 [11] was > 100 µM. For the same molecule, the TGI [11] was > 100 µM, the GI50 [12] was 87.2 µM and the TGI [12] was > 100 µM. The GI50 [13] was > 100 µM, the TGI [13] was > 100 µM and the GI50 [14] was > 100 µM. For the same molecule, the TGI [14] was > 100 µM, the GI50 [15] was 23.4 µM and the TGI [15] was 57.3 µM. The GI50 [16] was 26 µM, the TGI [16] was 87.3 µM and the GI50 [17] was 35.4 µM. The TGI [17] was > 100 µM, the GI50 [18] was > 100 µM and the TGI [18] was > 100 µM. For the same molecule, the GI50 [19] was 55.2 µM, the TGI [19] was > 100 µM and the GI50 [20] was > 100 µM. The TGI [20] was > 100 µM, the GI50 [21] was > 100 µM and the TGI [21] was > 100 µM. The GI50 [22] was 69.9 µM, the TGI [22] was > 100 µM and the GI50 [23] was > 100 µM. For the same molecule, the TGI [23] was > 100 µM, the GI50 [24] was 70.1 µM and the TGI [24] was > 100 µM. For the same molecule, the GI50 [25] was 17.7 µM, the TGI [25] was 46 µM and the GI50 [26] was > 100 µM. The TGI [26] was > 100 µM, the GI50 [27] was > 100 µM and the TGI [27] was > 100 µM. The GI50 [28] was > 100 µM, the TGI [28] was > 100 µM and the GI50 [29] was 46.5 µM. The TGI [29] was > 100 µM, the GI50 [30] was 63.3 µM and the TGI [30] was > 100 µM. The GI50 [31] was > 100 µM, the TGI [31] was > 100 µM and the GI50 [32] was > 100 µM. The TGI [32] was > 100 µM, the GI50 [33] was > 100 µM and the TGI [33] was > 100 µM. For the same molecule, the GI50 [34] was > 100 µM, the TGI [34] was > 100 µM and the GI50 [35] was > 100 µM. The TGI [35] was > 100 µM, the GI50 [36] was 39.7 µM and the TGI [36] was > 100 µM. For the same molecule, the GI50 [37] was > 100 µM, the TGI [37] was > 100 µM and the GI50 [38] was > 100 µM. The TGI [38] was > 100 µM, the GI50 [39] was 28.6 µM and the TGI [39] was > 100 µM. For the same molecule, the GI50 [40] was 38.8 µM, the TGI [40] was > 100 µM and the GI50 [41] was > 100 µM. The TGI [41] was > 100 µM, the GI50 [42] was 47.8 µM and the TGI [42] was > 100 µM. For the same molecule, the GI50 [43] was > 100 µM, the TGI [43] was > 100 µM and the GI50 [44] was > 100 µM. The TGI [44] was > 100 µM, the GI50 [45] was > 100 µM and the TGI [45] was > 100 µM. For the same molecule, the GI50 [46] was 38.1 µM, the TGI [46] was > 100 µM and the GI50 [47] was 15.8 µM. The TGI [47] was 40.3 µM, the GI50 [48] was > 100 µM and the TGI [48] was > 100 µM. The GI50 [49] was > 100 µM, the TGI [49] was > 100 µM and the GI50 [50] was > 100 µM. The TGI [50] was > 100 µM, the GI50 [51] was 59.5 µM and the TGI [51] was > 100 µM. The GI50 [52] was 27.5 µM, the TGI [52] was 79.4 µM and the GI50 [53] was 95 µM. The TGI [53] was > 100 µM, the GI50 [54] was 35 µM and the TGI [54] was > 100 µM. For the same molecule, the GI50 [55] was > 100 µM and the TGI [55] was > 100 µM.
`O=[N+]([O-])c1cnc(Sc2ccncn2)c([N+](=O)[O-])c1` showed a GI50 [1] of 12.2 µM, a TGI [1] of 25 µM and a GI50 [2] of 24.9 µM. The TGI [2] was 65.3 µM, the GI50 [3] was 32.6 µM and the TGI [3] was > 100 µM. It also gave a GI50 [4] of 1.77 µM, a TGI [4] of 3.27 µM and a GI50 [5] of 15.2 µM. It also gave a TGI [5] of 28.9 µM, a GI50 [6] of 1.6 µM and a TGI [6] of 3.07 µM. For the same molecule, the GI50 [7] was 1.21 µM, the TGI [7] was 4.47 µM and the GI50 [8] was 1.98 µM. The TGI [8] was 3.58 µM, the GI50 [9] was 16.7 µM and the TGI [9] was 30.5 µM. For the same molecule, the GI50 [11] was 18.4 µM, the TGI [11] was 36.2 µM and the GI50 [12] was 1.84 µM. It also gave a TGI [12] of 3.59 µM, a GI50 [13] of 2.78 µM and a TGI [13] of 11.2 µM. It also gave a GI50 [14] of 23.1 µM, a TGI [14] of 62.9 µM and a GI50 [15] of 14.6 µM. It also gave a TGI [15] of 28.1 µM, a GI50 [16] of 2.51 µM and a TGI [16] of 6.53 µM. The GI50 [17] was 19.2 µM, the TGI [17] was 57.2 µM and the GI50 [18] was 9.75 µM. It also gave a TGI [18] of 31.8 µM, a GI50 [19] of 16.7 µM and a TGI [19] of 31.4 µM. The GI50 [20] was 2.85 µM, the TGI [20] was 29.9 µM and the GI50 [21] was 20.9 µM. For the same molecule, the TGI [21] was 55.1 µM, the GI50 [22] was 3.1 µM and the TGI [22] was 10.6 µM. For the same molecule, the GI50 [23] was 5.81 µM, the TGI [23] was 19 µM and the GI50 [56] was 1.83 µM. For the same molecule, the TGI [56] was 3.61 µM, the GI50 [24] was 5.96 µM and the TGI [24] was 24.9 µM. It also gave a GI50 [25] of 14.8 µM, a TGI [25] of 28.4 µM and a GI50 [26] of 4.91 µM. It also gave a TGI [26] of 18.1 µM, a GI50 [27] of 3.24 µM and a TGI [27] of 33.1 µM. The GI50 [29] was 14.3 µM, the TGI [29] was 37.7 µM and the GI50 [30] was 23 µM. The TGI [30] was 49.4 µM, the GI50 [31] was 1.82 µM and the TGI [31] was 3.45 µM. The GI50 [32] was 16.6 µM, the TGI [32] was 33.7 µM and the GI50 [33] was 1.76 µM. It also gave a TGI [33] of 3.17 µM, a GI50 [35] of 16.3 µM and a TGI [35] of 31.7 µM. It also gave a GI50 [36] of 11.7 µM, a TGI [36] of 25 µM and a GI50 [37] of 15.1 µM. It also gave a TGI [37] of 29.2 µM, a GI50 [57] of 1.97 µM and a TGI [57] of 4.17 µM. For the same molecule, the GI50 [39] was 16 µM, the TGI [39] was 30.7 µM and the GI50 [40] was > 100 µM. For the same molecule, the TGI [40] was > 100 µM, the GI50 [41] was 15.3 µM and the TGI [41] was 28.9 µM. The GI50 [42] was 16.8 µM, the TGI [42] was 32.9 µM and the GI50 [43] was 15.6 µM. The TGI [43] was 29.7 µM, the GI50 [44] was 14.3 µM and the TGI [44] was 28 µM. The GI50 [58] was 16.9 µM, the TGI [58] was 31.1 µM and the GI50 [45] was 16 µM. For the same molecule, the TGI [45] was 29.9 µM, the GI50 [46] was 32.8 µM and the TGI [46] was > 100 µM. For the same molecule, the GI50 [47] was 14.4 µM, the TGI [47] was 27.7 µM and the GI50 [48] was 2.67 µM. The TGI [48] was > 100 µM, the GI50 [49] was 2.19 µM and the TGI [49] was 4.45 µM. For the same molecule, the GI50 [50] was 1.78 µM, the TGI [50] was 3.8 µM and the GI50 [51] was 1.74 µM. For the same molecule, the TGI [51] was 3.21 µM, the GI50 [52] was 29.4 µM and the TGI [52] was > 100 µM. The GI50 [53] was 1.78 µM, the TGI [53] was 3.38 µM and the GI50 [54] was 10.5 µM. The TGI [54] was 22.3 µM, the GI50 [55] was 1.55 µM and the TGI [55] was 2.98 µM.
